# Laboratory results as given in ChEMBL document CHEMBL5260831, “Recent advance in oxazole-based medicinal chemistry” (Eur J Med Chem, 2018).
# Key:
# [1] = test system: HepG2; assay: Antiproliferative activity in human HepG2 cells assessed as cell growth inhibition measured after 72 hrs by MTT assay; format: functional, cell-based; conditions: HepG2, 72 h
# [2] = test system: Staphylococcus aureus; assay: Antibacterial activity against Staphylococcus aureus assessed as bacterial growth inhibition by disc diffusion assay; format: functional
# [3] = test system: Escherichia coli; assay: Antibacterial activity against Escherichia coli assessed as bacterial growth inhibition by microdilution assay; format: functional
# [4] = test system: A549; assay: Antiproliferative activity in human A549 cells assessed as cell growth inhibition measured after 72 hrs by MTT assay; format: functional, cell-based; conditions: A549, 72 h
# [5] = target: Protein kinase C beta type (Homo sapiens, UniProt P05771); assay: Inhibition of PKCB (unknown origin)
# Sequence of Protein kinase C beta type (P05771 whole entry): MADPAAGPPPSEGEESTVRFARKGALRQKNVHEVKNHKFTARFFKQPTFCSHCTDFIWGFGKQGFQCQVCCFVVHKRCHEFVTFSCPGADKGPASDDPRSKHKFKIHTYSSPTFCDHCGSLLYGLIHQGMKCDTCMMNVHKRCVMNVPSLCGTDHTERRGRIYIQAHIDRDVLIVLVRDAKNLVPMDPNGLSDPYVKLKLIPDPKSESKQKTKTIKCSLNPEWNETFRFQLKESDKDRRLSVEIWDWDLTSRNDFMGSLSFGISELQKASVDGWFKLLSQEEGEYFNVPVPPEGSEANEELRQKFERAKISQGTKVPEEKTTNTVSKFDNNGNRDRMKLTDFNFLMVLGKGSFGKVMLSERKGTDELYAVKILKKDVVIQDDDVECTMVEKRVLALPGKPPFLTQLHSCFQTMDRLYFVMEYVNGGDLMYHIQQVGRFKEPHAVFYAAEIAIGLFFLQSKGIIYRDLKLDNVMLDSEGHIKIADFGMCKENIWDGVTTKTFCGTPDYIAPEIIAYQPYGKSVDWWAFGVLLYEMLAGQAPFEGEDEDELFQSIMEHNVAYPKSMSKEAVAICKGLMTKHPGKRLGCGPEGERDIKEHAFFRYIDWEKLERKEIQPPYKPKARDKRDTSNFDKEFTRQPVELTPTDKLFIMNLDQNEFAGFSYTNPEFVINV
# [6] = target: T1, Alpha-glucosidase (Saccharomyces cerevisiae S288c, UniProt P53341+P38158+P07265); assay: Inhibition of yeast alpha-glucosidase using p-nitrophenyl-alpha-D-glucopyranoside as substrate by absorbance based analysis; format: protein assay
# [7] = target: T1, Alpha-glucosidase; assay: Inhibition of yeast alpha-glucosidase using p-nitrophenyl-alpha-D-glucopyranoside as substrate; format: protein assay
# [8] = test system: P388; assay: Antiproliferative activity gainst mouse P388 cells assessed as cell growth inhibition; format: functional, cell-based
# [9] = test system: Rattus norvegicus; assay: Anti-inflammatory activity against Carrageenan-induced paw edema in rat ulcerogenic activity relative to control; format: functional
# [10] = test system: Staphylococcus aureus; assay: Antibiofilm activity against methicillin-sensitive Staphylococcus aureus ATCC 35556 assessed as inhibition of biofilm formation; format: functional
# [11] = target: Cannabinoid receptor 1 (Homo sapiens) (UniProt P21554); assay: Binding affinity to CB1 receptor (unknown origin); conditions: filed as agonist
# Sequence of Cannabinoid receptor 1 (Homo sapiens) (P21554 whole entry): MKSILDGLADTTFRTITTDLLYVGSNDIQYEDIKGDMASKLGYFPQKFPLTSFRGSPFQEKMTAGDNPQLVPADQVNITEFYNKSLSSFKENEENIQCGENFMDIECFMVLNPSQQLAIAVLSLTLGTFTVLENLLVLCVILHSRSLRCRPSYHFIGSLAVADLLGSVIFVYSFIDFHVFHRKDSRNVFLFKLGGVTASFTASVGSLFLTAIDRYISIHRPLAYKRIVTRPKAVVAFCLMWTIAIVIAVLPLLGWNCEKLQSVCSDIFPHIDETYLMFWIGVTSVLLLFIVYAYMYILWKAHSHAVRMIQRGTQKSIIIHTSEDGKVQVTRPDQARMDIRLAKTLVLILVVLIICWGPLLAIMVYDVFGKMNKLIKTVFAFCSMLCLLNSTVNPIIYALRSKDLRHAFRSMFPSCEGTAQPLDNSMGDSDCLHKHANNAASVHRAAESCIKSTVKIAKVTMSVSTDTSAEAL
# [12] = test system: Mycolicibacterium smegmatis; assay: Antibacterial activity against Mycobacterium smegmatis mc2155ATCC-700084 assessed as bacterial growth inhibition measured after 18 hrs by microplate reader based analysis; format: functional
# [13] = test system: Mycobacterium tuberculosis; assay: Antimycobacterial activity against Mycobacterium tuberculosis H37Rv ATCC27294 assessed as inhibition of bacterial growth by agar dilution assay; format: functional
# [14] = test system: Rattus norvegicus; assay: Anti-inflammatory activity against Carrageenan-induced paw edema in albino rat ulcerogenic activity at 20 mg/kg, po relative to control; format: functional
# [15] = test system: Rattus norvegicus; assay: Anti-inflammatory activity against Carrageenan-induced paw edema in Wistar albino rat ulcerogenic activity relative to control; format: functional
# [16] = test system: HepG2; assay: Antiproliferative activity in human HepG2 cells assessed as cell growth inhibition; format: functional, cell-based
# [17] = test system: MCF7; assay: Antiproliferative activity in human MCF7 cells assessed as cell growth inhibition; format: functional, cell-based
# [18] = test system: A549; assay: Antiproliferative activity in human A549 cells assessed as cell growth inhibition; format: functional, cell-based
# [19] = test system: HeLa; assay: Antiproliferative activity in human HeLa cells assessed as cell growth inhibition; format: functional, cell-based
# [20] = test system: MCF7; assay: Antiproliferative activity in human MCF7 cells assessed as cell growth inhibition measured after 48 hrs by MTT assay; format: functional, cell-based; conditions: MCF7, 48 h
# [21] = test system: A549; assay: Antiproliferative activity in human A549 cells assessed as cell growth inhibition measured after 48 hrs by MTT assay; format: functional, cell-based; conditions: A549, 48 h
# [22] = test system: MDA-MB-231; assay: Antiproliferative activity in human MDA-MB-231 cells assessed as cell growth inhibition measured after 72 hrs by SRB assay; format: functional, cell-based; conditions: MDA-MB-231, 72 h
# [23] = test system: HCT-116; assay: Antiproliferative activity in human HCT-116 cells assessed as cell growth inhibition measured after 72 hrs by SRB assay; format: functional, cell-based; conditions: HCT-116, 72 h
# [24] = test system: A549; assay: Antiproliferative activity in paclitaxel-resistant human A549 cells assessed as cell growth inhibition measured after 72 hrs by SRB assay; format: functional, cell-based; conditions: A549, 72 h
# [25] = Antiproliferative activity in human SNU-601 cells assessed as cell growth inhibition measured after 72 hrs by SRB assay; format: functional, cell-based; conditions: SNU-601, 72 h
# [26] = test system: SK-HEP1; assay: Antiproliferative activity in human SK-HEP1 cells assessed as cell growth inhibition measured after 72 hrs by SRB assay; format: functional, cell-based; conditions: SK-HEP1, 72 h
# [27] = test system: A549; assay: Antiproliferative activity in human A549 cells assessed as cell growth inhibition measured after 72 hrs by SRB assay; format: functional, cell-based; conditions: A549, 72 h
# [28] = test system: Leishmania major; assay: Leishmanicidal activity against Leishmania major JISH118 promastigote infected in human THP-1 macrophage cells assessed as reduction in […]; format: functional, organism-based; conditions: JISH118, THP-1
# [29] = test system: Bacillus cereus; assay: Antibacterial activity against Bacillus cereus MTCC 430 assessed as microbial growth inhibition measured after 24 hrs by paper disc diffusion technique; format: functional
# [30] = test system: Pseudomonas aeruginosa; assay: Antibacterial activity against Pseudomonas aeruginosa MTCC 741 assessed as microbial growth inhibition measured after 24 hrs by paper disc diffusion technique; format: functional
smiles,measurement,setting,value
O=[N+]([O-])c1ccccc1-c1nc(-c2ccccc2)co1,IC50,[1],56.5 µM
COc1ccc(-c2nnc(SCCSc3nnc(-c4c[nH]c5ccccc45)n3N)o2)cc1,MIC,[2],2 µg/mL
same,MIC,[3],2 µg/mL
CO[C@@H]1[C@H](N(C)c2ncc(-c3ccccc3)o2)C[C@H]2C[C@]1(C)n1c3ccccc3c3c4c(c5c6ccccc6n2c5c31)C(=O)NC4,IC50,[4],750 nM
same,IC50,[5],500 nM
O=[N+]([O-])c1ccc2cc(-c3nnc(-c4ccc(O)cc4O)o3)oc2c1,IC50,[6],12.75 µM
same,IC50,[7],2 µM
CCC[C@@H]1NC(=O)C2C[C@H](C)CN2C(=O)[C@@H](NC=O)CNC(=O)[C@H](CSSC[C@@H]2NC(=O)c3coc(n3)[C@H](C)NC(=O)C(=O)[C@H](CCC)NC(=O)C3C[C@H](C)CN3C(=O)[C@@H](NC=O)CNC2=O)NC(=O)c2coc(n2)[C@H](C)NC(=O)C1=O (stereo partly specified),IC50,[8],830 nM
COc1cc(-c2nnc(SCC(=O)Nc3ccc(/C(C)=N/O)cc3)o2)cc(OC)c1OC,inhibition (INH),[9],96.67%
Cn1c(-c2nnc(-c3ccc(Cl)cc3Cl)o2)cc(Br)c1Br,MBIC,[10],0.39 µg/mL
c1ccc(Cc2noc(-c3cn(CCN4CCCC4)c4ccccc34)n2)cc1,pKb,[11],7.2
C/C=C(C)/C=C(\C)[C@@H](O)[C@H](C)[C@@H](O)[C@H](O)[C@@H]1C/C=C\C=C\[C@@H](O)C[C@H](O)[C@@H](C)c2nc(cs2)/C=C(\CCCCCC)C(=O)O1,MIC,[12],16 µg/mL
COc1ccc(-c2cc(-c3nnc(C)o3)nn2-c2ccc(NC(=O)c3ccc(F)cc3)cc2)cc1,MIC,[13],> 50 µg/mL
O=C(CCN1CCN(c2ccc([N+](=O)[O-])cc2)CC1)Nc1ccc2oc(Cc3ccc(Cl)cc3)nc2c1,inhibition in vivo at 20 mg/kg,[14],81.7%
Clc1ccccc1-c1nnc(Cn2c(CN3CCOCC3)nc3ccccc32)o1,inhibition (INH),[15],74.17%
CC(=O)Oc1ccccc1C1OC(c2ccncc2)=NN1C(C)=O (stereo unspecified),IC50,[16],50 µM
same,IC50,[17],50 µM
COc1ccc(-c2nnc(-c3cc(Br)c(Br)n3C)o2)cc1,MBIC,[10],0.78 µg/mL
Cn1c(-c2nnc(-c3cc(Br)c(Br)[nH]3)o2)cc(Br)c1Br,MBIC,[10],0.78 µg/mL
Brc1ccccc1-c1nc(-c2ccccc2)co1,IC50,[1],16.9 µM
Cc1ncc(-c2ccc3ccccc3c2)o1,IC50,[17],4.6 µM
same,IC50,[18],4.6 µM
same,IC50,[19],4.6 µM
CC(=O)Oc1ccc(-c2nc(-c3ccccc3)co2)cc1,IC50,[1],16.6 µM
O=[N+]([O-])c1ccc2cc(-c3nnc(-c4cccc(O)c4O)o3)oc2c1,IC50,[6],12.75 µM
same,IC50,[7],2 µM
Cc1ncc(-c2cnc3ccccc3c2)o1,IC50,[17],4.6 µM
same,IC50,[18],4.6 µM
same,IC50,[19],4.6 µM
C/C=C(C)/C=C(\C)[C@@H](O)[C@H](C)[C@@H](O)[C@@H]1OC(=O)/C(CCCCCC)=C/c2coc(n2)[C@H](C)[C@@H](O)C[C@H](O)/C=C/C=C\C[C@@H]1O,MIC,[12],64 µg/mL
Cc1ncc(-c2cccnc2)o1,IC50,[17],4.6 µM
same,IC50,[18],4.6 µM
same,IC50,[19],4.6 µM
CC1=NN(c2ccccc2)C(=O)/C1=N/Nc1cccc(-c2nc3ccccc3o2)c1,IC50,[20],17 µM
same,IC50,[21],15.5 µM
CN[C@H](CC(C)C)C(=O)N[C@H]1C(=O)N[C@@H](CC(N)=O)C(=O)N[C@H]2C(=O)N[C@H]3C(=O)N[C@H](C(=O)N[C@H](C(=O)O)c4cc(O)cc(O)c4-c4cc3ccc4O)[C@H](O)c3ccc(c(Cl)c3)Oc3cc2cc(c3O[C@@H]2O[C@H](CO)[C@@H](O)[C@H](O)[C@H]2O[C@H]2C[C@](C)(N)[C@H](O)[C@H](C)O2)Oc2ccc(cc2Cl)[C@H]1O [VANCOMYCIN],MBIC,[10],3.125 µg/mL
O=[N+]([O-])c1ccc2cc(-c3nnc(-c4ccccc4F)o3)oc2c1,IC50,[6],12.75 µM
same,IC50,[7],2 µM
CO[C@@H]1[C@H](N(C)c2ncc(-c3c[nH]c4ccccc34)o2)C[C@H]2C[C@]1(C)n1c3ccccc3c3c4c(c5c6ccccc6n2c5c31)C(=O)NC4,IC50,[4],450 nM
same,IC50,[5],500 nM
COC(CC1OC(=O)CC(O)C/C=C/C(=O)C(C)C(OC)c2coc(n2)-c2coc(n2)-c2coc(n2)/C=C\CCC1C)C(C)CCC(=O)C(C)C(C/C=C/N(C)C=O)OC (stereo unspecified),IC50,[22],40 nM
same,IC50,[23],73 nM
same,IC50,[24],22 nM
same,IC50,[25],107 nM
same,IC50,[26],80 nM
same,IC50,[27],24 nM
Nc1ccc(-c2nnc(SCCSc3nnc(-c4c[nH]c5ccccc45)n3N)o2)cc1,MIC,[2],2 µg/mL
same,MIC,[3],2 µg/mL
Cn1c(-c2nnc(-c3ccc(Cl)cc3)o2)cc(Br)c1Br,MBIC,[10],0.78 µg/mL
COc1ccc(-c2cc(-c3nnc(C)o3)nn2-c2ccc(NC(=O)c3ccccc3)cc2)cc1,MIC,[13],> 50 µg/mL
C/C=C(C)\C=C(/C)[C@@H](O)[C@H](C)[C@@H](O)[C@@H]1OC(=O)/C(CCCCCC)=C/c2coc(n2)[C@H](C)[C@@H](O)C[C@H](O)/C=C/C=C\C[C@@H]1O,MIC,[12],64 µg/mL
O=C(NNC(=S)c1ccc(C(F)(F)F)cc1)c1ccc(-c2nnc(-c3ccc4ncccc4c3)o2)cc1,IC50,[28],100 nM
Cc1nnc(-c2cc(-c3ccc(Cl)cc3)n(-c3ccc(NC(=O)c4ccccc4Cl)cc3)n2)o1,MIC,[13],1.56 µg/mL
Cc1nnc(-c2cc(-c3ccc(Cl)cc3)n(-c3ccc(NC(=O)c4ccccc4)cc3)n2)o1,MIC,[13],3.13 µg/mL
O=c1cc(Nc2ccc(-c3cc(-c4ccc(Cl)cc4Cl)on3)cc2)c2ccccc2o1,MIC,[29],12.5 µg/mL
same,MIC,[30],12.5 µg/mL
